Results reported in patent US20240124427A1, “HYDROXYHETEROCYCLOALKANE-CARBAMOYL DERIVATIVES” (Idorsia Pharmaceuticals Ltd, priority 2021, published 2024).

Target: human Gal-3 (hGal-3) (Homo sapiens (Human), UniProt P17931)
Assay: Competitive binding assay: biotinylated hGal-3 binding to microplate-adsorbed asialofetuin (ASF)
Conditions: Activity on hGal-3; mean values of several measurements; mixture of diastereomers measured where not separated
Method in brief: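 Spectrophotometric read-out using streptavidin-peroxidase and ABTS quantifies how much biotin-hGal-3 remains bound to microplate asialofetuin after 3 h at 4 °C with compound present. Values are means of repeated IC50 determinations.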

Sequence of human Gal-3 (hGal-3) (P17931 whole entry): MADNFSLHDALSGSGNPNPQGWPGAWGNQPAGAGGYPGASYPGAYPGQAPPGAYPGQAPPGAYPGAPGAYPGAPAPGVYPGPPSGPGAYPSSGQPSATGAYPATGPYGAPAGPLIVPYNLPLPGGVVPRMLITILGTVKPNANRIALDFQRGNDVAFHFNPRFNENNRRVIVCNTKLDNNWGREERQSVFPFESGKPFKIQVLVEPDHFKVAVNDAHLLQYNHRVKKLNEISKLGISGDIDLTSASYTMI

IC50	Compound
222 nM	CO[C@@H]1[C@@H](n2cc(-c3ccc(Cl)c(Cl)c3)nn2)[C@@H](O)[C@@H](CO)O[C@H]1C(=O)N(c1cc(Br)cc(Br)c1)[C@@H]1COC[C@H]1O [Example 56, (2R,3R,4S,5R,6R)-N-(3,5-dibromophenyl)-4-(4-(3,4-dichlorophenyl)-1H-1,2,3-triazol-1-yl)-5-hydroxy-6-(hydroxymethyl)-N-((3R,4S)-4-hydroxytetrahydrofuran-3-yl)-3-methoxytetrahydro-2H-pyran-2-carboxamide]
151 nM	CO[C@@H]1[C@@H](n2cc(-c3ccc(Cl)c(Cl)c3)nn2)[C@@H](O)[C@@H](CO)O[C@H]1C(=O)N(c1cc(Br)cc(C#N)c1)[C@@H]1COC[C@H]1O [Example 57, (2R,3R,4S,5R,6R)-N-(3-bromo-5-cyanophenyl)-4-(4-(3,4-dichlorophenyl)-1H-1,2,3-triazol-1-yl)-5-hydroxy-6-(hydroxymethyl)-N-((3R,4S)-4-hydroxytetrahydrofuran-3-yl)-3-methoxytetrahydro-2H-pyran-2-carboxamide]
175 nM	CO[C@@H]1[C@@H](n2cc(-c3ccc(Cl)c(Cl)c3)nn2)[C@@H](O)[C@@H](CO)O[C@H]1C(=O)N(c1cc(C)cc(Br)c1)[C@@H]1COC[C@H]1O [Example 58, (2R,3R,4S,5R,6R)-N-(3-bromo-5-methylphenyl)-4-(4-(3,4-dichlorophenyl)-1H-1,2,3-triazol-1-yl)-5-hydroxy-6-(hydroxymethyl)-N-((3R,4S)-4-hydroxytetrahydrofuran-3-yl)-3-methoxytetrahydro-2H-pyran-2-carboxamide]
23 nM	CO[C@@H]1[C@@H](n2cc(-c3cc(F)c(F)c(F)c3)nn2)[C@@H](O)[C@@H](CO)O[C@H]1C(=O)N(c1cc(Cl)cc(Cl)c1)[C@H]1CNC[C@@H]1O [Example 59, (2R,3R,4S,5R,6R)-N-(3,5-dichlorophenyl)-5-hydroxy-6-(hydroxymethyl)-N-((3S,4S)-4-hydroxypyrrolidin-3-yl)-3-methoxy-4-(4-(3,4,5-trifluorophenyl)-1H-1,2,3-triazol-1-yl)tetrahydro-2H-pyran-2-carboxamide]
51 nM	CO[C@@H]1[C@@H](n2cc(-c3cc(F)c(F)c(F)c3)nn2)[C@@H](O)[C@@H](CO)O[C@H]1C(=O)N(c1cc(Br)cc(C#N)c1)[C@H]1CNC[C@@H]1O [Example 60, (2R,3R,4S,5R,6R)-N-(3-bromo-5-cyanophenyl)-5-hydroxy-6-(hydroxymethyl)-N-((3S,4S)-4-hydroxypyrrolidin-3-yl)-3-methoxy-4-(4-(3,4,5-trifluorophenyl)-1H-1,2,3-triazol-1-yl)tetrahydro-2H-pyran-2-carboxamide]
26 nM	CO[C@@H]1[C@@H](n2cc(-c3cc(F)c(F)c(F)c3)nn2)[C@@H](O)[C@@H](CO)O[C@H]1C(=O)N(c1cc(C)cc(Br)c1)[C@H]1CNC[C@@H]1O [Example 61, (2R,3R,4S,5R,6R)-N-(3-bromo-5-methylphenyl)-5-hydroxy-6-(hydroxymethyl)-N-((3S,4S)-4-hydroxypyrrolidin-3-yl)-3-methoxy-4-(4-(3,4,5-trifluorophenyl)-1H-1,2,3-triazol-1-yl)tetrahydro-2H-pyran-2-carboxamide]
24 nM	CO[C@@H]1[C@@H](n2cc(-c3ccc(C)c(F)c3F)nn2)[C@@H](O)[C@@H](CO)O[C@H]1C(=O)N(c1cc(Cl)cc(Cl)c1)[C@H]1CNC[C@@H]1O [Example 63, (2R,3R,4S,5R,6R)-N-(3,5-dichlorophenyl)-4-(4-(2,3-difluoro-4-methylphenyl)-1H-1,2,3-triazol-1-yl)-5-hydroxy-6-(hydroxymethyl)-N-((3S,4S)-4-hydroxypyrrolidin-3-yl)-3-methoxytetrahydro-2H-pyran-2-carboxamide]
25 nM	CO[C@@H]1[C@@H](n2cc(-c3ccc(C)c(F)c3F)nn2)[C@@H](O)[C@@H](CO)O[C@H]1C(=O)N(c1cc(C)cc(Br)c1)[C@H]1CNC[C@@H]1O [Example 64, (2R,3R,4S,5R,6R)-N-(3-bromo-5-methylphenyl)-4-(4-(2,3-difluoro-4-methylphenyl)-1H-1,2,3-triazol-1-yl)-5-hydroxy-6-(hydroxymethyl)-N-((3S,4S)-4-hydroxypyrrolidin-3-yl)-3-methoxytetrahydro-2H-pyran-2-carboxamide]
54 nM	CO[C@@H]1[C@@H](n2cc(-c3ccc(Cl)c(Cl)c3)nn2)[C@@H](O)[C@@H](CO)O[C@H]1C(=O)N(c1cc(Cl)cc(Cl)c1)[C@H]1CNC[C@@H]1O [Example 65, (2R,3R,4S,5R,6R)-N-(3,5-dichlorophenyl)-4-(4-(3,4-dichlorophenyl)-1H-1,2,3-triazol-1-yl)-5-hydroxy-6-(hydroxymethyl)-N-((3S,4S)-4-hydroxypyrrolidin-3-yl)-3-methoxytetrahydro-2H-pyran-2-carboxamide]
182 nM	CO[C@@H]1[C@@H](n2cc(-c3cc(F)c(F)c(F)c3)nn2)[C@@H](O)[C@@H](CO)O[C@H]1C(=O)N(c1cc(Cl)cc(Cl)c1)[C@@H]1CNC[C@H]1O [Example 66, (2R,3R,4S,5R,6R)-N-(3,5-dichlorophenyl)-5-hydroxy-6-(hydroxymethyl)-N-((3R,4R)-4-hydroxypyrrolidin-3-yl)-3-methoxy-4-(4-(3,4,5-trifluorophenyl)-1H-1,2,3-triazol-1-yl)tetrahydro-2H-pyran-2-carboxamide]
129 nM	CO[C@@H]1[C@@H](n2cc(-c3cc(F)c(F)c(F)c3)nn2)[C@@H](O)[C@@H](CO)O[C@H]1C(=O)N(c1cc(Br)cc(C#N)c1)[C@@H]1CNC[C@H]1O [Example 67, (2R,3R,4S,5R,6R)-N-(3-bromo-5-cyanophenyl)-5-hydroxy-6-(hydroxymethyl)-N-((3R,4R)-4-hydroxypyrrolidin-3-yl)-3-methoxy-4-(4-(3,4,5-trifluorophenyl)-1H-1,2,3-triazol-1-yl)tetrahydro-2H-pyran-2-carboxamide]
222 nM	CO[C@@H]1[C@@H](n2cc(-c3cc(F)c(F)c(F)c3)nn2)[C@@H](O)[C@@H](CO)O[C@H]1C(=O)N(c1cc(C)cc(Br)c1)[C@@H]1CNC[C@H]1O [Example 68, (2R,3R,4S,5R,6R)-N-(3-bromo-5-methylphenyl)-5-hydroxy-6-(hydroxymethyl)-N-((3R,4R)-4-hydroxypyrrolidin-3-yl)-3-methoxy-4-(4-(3,4,5-trifluorophenyl)-1H-1,2,3-triazol-1-yl)tetrahydro-2H-pyran-2-carboxamide]
38 nM	CO[C@@H]1[C@@H](n2cc(-c3ccc(C)c(F)c3F)nn2)[C@@H](O)[C@@H](CO)O[C@H]1C(=O)N(c1cc(C)cc(Br)c1)[C@@H]1CNC[C@H]1O [Example 69, (2R,3R,4S,5R,6R)-N-(3-bromo-5-methylphenyl)-4-(4-(2,3-difluoro-4-methylphenyl)-1H-1,2,3-triazol-1-yl)-5-hydroxy-6-(hydroxymethyl)-N-((3R,4R)-4-hydroxypyrrolidin-3-yl)-3-methoxytetrahydro-2H-pyran-2-carboxamide]
36 nM	CO[C@@H]1[C@@H](n2cc(-c3cc(F)c(F)c(F)c3)nn2)[C@@H](O)[C@@H](CO)O[C@H]1C(=O)N(c1cc(Cl)cc(Cl)c1)[C@H]1CN(C(C)=O)C[C@@H]1O [Example 71, (2R,3R,4S,5R,6R)-N-((3S,4S)-1-acetyl-4-hydroxypyrrolidin-3-yl)-N-(3,5-dichlorophenyl)-5-hydroxy-6-(hydroxymethyl)-3-methoxy-4-(4-(3,4,5-trifluorophenyl)-1H-1,2,3-triazol-1-yl)tetrahydro-2H-pyran-2-carboxamide]
26 nM	CO[C@@H]1[C@@H](n2cc(-c3cc(F)c(F)c(F)c3)nn2)[C@@H](O)[C@@H](CO)O[C@H]1C(=O)N(c1cc(C)cc(Br)c1)[C@H]1CN(C(C)=O)C[C@@H]1O [Example 72, (2R,3R,4S,5R,6R)-N-((3S,4S)-1-acetyl-4-hydroxypyrrolidin-3-yl)-N-(3-bromo-5-methylphenyl)-5-hydroxy-6-(hydroxymethyl)-3-methoxy-4-(4-(3,4,5-trifluorophenyl)-1H-1,2,3-triazol-1-yl)tetrahydro-2H-pyran-2-carboxamide]
23 nM	CO[C@@H]1[C@@H](n2cc(-c3ccc(Br)c(F)c3F)nn2)[C@@H](O)[C@@H](CO)O[C@H]1C(=O)N(c1cc(Cl)cc(Cl)c1)[C@H]1CN(C(C)=O)C[C@@H]1O [Example 73, (2R,3R,4S,5R,6R)-N-((3S,4S)-1-acetyl-4-hydroxypyrrolidin-3-yl)-4-(4-(4-bromo-2,3-difluorophenyl)-1H-1,2,3-triazol-1-yl)-N-(3,5-dichlorophenyl)-5-hydroxy-6-(hydroxymethyl)-3-methoxytetrahydro-2H-pyran-2-carboxamide]
27 nM	CO[C@@H]1[C@@H](n2cc(-c3cc(F)c(C)c(F)c3)nn2)[C@@H](O)[C@@H](CO)O[C@H]1C(=O)N(c1cc(Br)cc(Br)c1)[C@H]1CN(C(C)=O)C[C@@H]1O [Example 74, (2R,3R,4S,5R,6R)-N-((3S,4S)-1-acetyl-4-hydroxypyrrolidin-3-yl)-N-(3,5-dibromophenyl)-4-(4-(3,5-difluoro-4-methylphenyl)-1H-1,2,3-triazol-1-yl)-5-hydroxy-6-(hydroxymethyl)-3-methoxytetrahydro-2H-pyran-2-carboxamide]
22 nM	CO[C@@H]1[C@@H](n2cc(-c3cc(F)c(C)c(F)c3)nn2)[C@@H](O)[C@@H](CO)O[C@H]1C(=O)N(c1cc(C)cc(Br)c1)[C@H]1CN(C(C)=O)C[C@@H]1O [Example 75, (2R,3R,4S,5R,6R)-N-((3S,4S)-1-acetyl-4-hydroxypyrrolidin-3-yl)-N-(3-bromo-5-methylphenyl)-4-(4-(3,5-difluoro-4-methylphenyl)-1H-1,2,3-triazol-1-yl)-5-hydroxy-6-(hydroxymethyl)-3-methoxytetrahydro-2H-pyran-2-carboxamide]
37 nM	CO[C@@H]1[C@@H](n2cc(-c3cc(F)c(Cl)c(F)c3)nn2)[C@@H](O)[C@@H](CO)O[C@H]1C(=O)N(c1cc(C)cc(Br)c1)[C@H]1CN(C(C)=O)C[C@@H]1O [Example 76, (2R,3R,4S,5R,6R)-N-((3S,4S)-1-acetyl-4-hydroxypyrrolidin-3-yl)-N-(3-bromo-5-methylphenyl)-4-(4-(4-chloro-3,5-difluorophenyl)-1H-1,2,3-triazol-1-yl)-5-hydroxy-6-(hydroxymethyl)-3-methoxytetrahydro-2H-pyran-2-carboxamide]
